{
  "source": "patent US6376242B1",
  "about": "“Methods and compositions for treating platelet-related disorders using MPL pathway inhibitory agents” (Emory University, priority 1999, dated 2002)",
  "origin": "cited, not measured here",
  "system": "megakaryocyte cell line",
  "details": "in vitro",
  "data": [
    {"smiles": "N#C/C(=C/c1ccc(O)c(O)c1)C(=O)NCc1ccccc1", "note": "[AG-490]", "values": [
      {"measurement": "inhibition of proliferation of a megakaryocyte cell line", "result": "inhibit proliferation of a megakaryocyte cell line in vitro"}
    ]}
  ]
}
